This note sets out measurements from a melting point compilation (Tetko et al.; mined from patent text by program, amines drawn as free bases though some values may be those of a salt).

The term melting point denotes the temperature, or range, at which the solid turns liquid.

`COC(C)=NS(=O)(=O)c1nc(-c2ccc(O)cc2)ns1` showed a melting point of 190 to 192 °C. Turning to `O=C(Nc1cc2ncc(CN3CCCC3)cc2cc1Cl)c1ccc(-c2cc3ccccc3o2)cc1`, the melting point is 209 °C.

Consider `Nc1nc2ccccc2c2c1ncn2CCCCNC(=O)Oc1cccc2ccccc12`, for which the melting point was 89 to 92 °C. Consider `Nc1nnc(-c2ccc(Cl)c(C(F)(F)F)c2)c(N)n1`, for which the melting point was 228 to 229 °C. With `Oc1ccc2cc(-c3ccc(-c4ccccc4)[nH]3)ccc2c1`, the melting point turned out to be 210 °C. The result for `COC(=O)C(O)=CC(=O)c1cn(Cc2ccccc2F)c(=O)n(Cc2ccccc2F)c1=O` reads 158 to 160 °C; that for `COCc1nc(Cl)c(Oc2cc(OC)ccc2Cl)c(Cl)n1`, 105 °C. With `CC(=O)NCCCc1c(Cl)ccc2occc12`, the melting point lay in the range of 82 to 83 °C. Regarding `CCC(=O)Nc1nn(C)c2c1sc1ccccc12`, the melting point fell in the range of 88 to 89 °C.

Take `N#Cc1cccc(S(=O)(=O)n2c(=O)[nH]c3cc(Cl)ccc3c2=O)c1`: the melting point was 225 to 226 °C. Under `CC1=C(C)C(=O)N(C(=O)NCCc2ccc(S(=O)(=O)NC(=O)NC3CCCCC3)cc2)C1` stands 189 to 190 °C; under `O=S(=O)(Oc1ccc(C(c2ccc(OS(=O)(=O)c3ccccc3)cc2)(C(F)(F)F)C(F)(F)F)cc1)c1ccccc1`, 133 to 134 °C; under `Cc1nc2c(s1)C(=O)N(C(C)(C)C)C2=O`, 106 °C. In turn, `COc1cccc(C=CC(=O)c2c(OCC=C(C)C)ccc3c(=O)c4ccccc4oc23)c1` returned a melting point of 134 to 136 °C. Take `CC(=O)Nc1ccc(C(C)=O)c(F)c1F`: the melting point was 149 to 152 °C. For `CN(C)c1ccccc1CC(=O)N1C[C@@H]2[C@H](F)CCC(c3ccccc3)(c3ccccc3)[C@@H]2C1`, the melting point amounted to 186 °C. Regarding `CCCn1nc2c(N)nc3ccccc3c2c1CCCCN1C(C)=NOC1(C)C`, the melting point is 144 to 146 °C. Compound `Cc1ccc2ccc3ccccc3c(=O)c2c1` gave a melting point of 81 to 83 °C. Compound `COC(=O)C1=Cc2cc(O)ccc2S(=O)(=O)CC1` showed a melting point of 176 to 178 °C. For the compound `CCOC(=O)n1c2ccccc2c(=O)n1CSc1ccccc1`, the melting point is 87 to 88 °C. As to `C=CCN(CC=C)CC(=O)N1c2ccccc2N(C)C(=O)c2cnc(-c3ccccc3)nc21`, the melting point lay in the range of 139 to 140 °C. The compound `CCCCCCCCCCCCS(=O)c1c(O)cc(C)oc1=O` (stereo not drawn) returned a melting point of 80 °C.

`COC(=O)c1ccc2c(c1)C(=O)CCC2` came in with a melting point of 170 to 172 °C. The result for `Cn1c(CO)c(-c2ccccc2)c2ccccc2c1=O` reads 159 to 161 °C. `NC(=O)N(O)CC#Cc1cccc(C2=N[C@H](c3ccccc3)CS2)c1` registered a melting point of 155 to 157 °C. Turning to `Cc1oc(-c2ccc(Cl)cc2)cc1C(=O)N[C@H](C)[C@](O)(Cn1cncn1)c1ccc(F)cc1F`, the melting point was in the range of 189 to 190 °C. For `Cc1nc(-c2c(Cl)cc(O)cc2Cl)oc1C`, the melting point is 228 to 229 °C.

Compound `CCOCc1nc2c(N)nc(C)c(C)c2n1CC1(O)CCCCC1` displayed a melting point of 194 to 195 °C. Under `CC(C)c1nc2cc(COc3ccc(CC4OC(=O)N(C(c5ccccc5)(c5ccccc5)c5ccccc5)C4=O)cc3)ccc2o1` (stereo not drawn) stands 123 to 125 °C. For the compound `O=c1ccoc2cc(OCCn3ccnc3)ccc12`, the melting point lay within 131 to 133 °C. `COCCCNC(=O)c1cc(Br)c(OCc2ccccc2)cc1OCc1ccccc1` showed a melting point of 104 to 106 °C.

`CCOC1CCC(=O)N1S(=O)(=O)c1ccc(O)cc1` (stereo not drawn) registered a melting point of 162 to 163 °C.

In the case of `CCCCCCCCc1cnc(-c2ccc(OC)c(F)c2)nc1`, the melting point is 58.7 to 59 °C. Take `CCC1N=C(c2ccccc2Cl)c2cc(CC(=O)O)sc2-n2c(C)nnc21` (stereo not drawn): the melting point was in the range of 170 to 180 °C. As to `COc1cc(/C=C/C(=O)Nc2ccccc2C(=O)O)ccc1OCCN1CCOCC1`, the melting point fell in the range of 195 to 201 °C. `O=C(Nc1cc(S(=O)(=O)N2CCC(O)C2)sc1Cl)c1cnn2c(C(F)(F)F)cc(-c3ccc(C(F)(F)F)cc3)nc12` (racemic) gave a melting point of 270 °C. `CCCCCCNc1nc(N)ccc1[N+](=O)[O-]` gave a melting point of 69 to 73 °C. Under `N#Cc1cnc2cc(-c3csc(CN4CCOCC4)c3)ccc2c1Nc1ccc(Oc2ccccc2)cc1` stands 221 to 223 °C. Regarding `O=C1CCC(c2ccc(NC3=NCCO3)cc2)=NN1`, the melting point fell in the range of 332 to 333 °C. Regarding `COc1cc2c(N3CCc4ccc(Cl)cc43)ncnc2c(OC)c1OC`, the melting point is 139 to 143 °C. Turning to `CC(CCCC(C(=O)O)C(=O)O)C1CC=C2C3=C(CCC21C)C1(C)CCC(O)C(C)(C)C1CC3` (stereo not drawn), the melting point lay in the range of 188 to 190 °C. Regarding `CCCCc1cc2cc(C(=O)OCC)ccn2c1`, the melting point was 47 to 48 °C.

`CC(C)Oc1ccc(/C=C(\NC(=O)c2ccc(OCCCCC3CC3)cc2)C(=O)NCCO)cc1` registered a melting point of 53 to 55 °C. With `Cc1cc2cc(CN3CCCC3)cnc2cc1NC(=O)c1ccc(-c2ccc(F)cc2)cc1`, the melting point is 182 to 187 °C.

`Cc1nnc2ccc(-c3ccc(C(C)(C)C)cc3)nn12`: the melting point fell in the range of 142 to 145 °C. Take `O=COCCCCCC(=O)NC[C@@H]1CN2C(=O)C[C@H]2O1` (racemic): the melting point lay in the range of 61.5 to 63 °C. In turn, `CCC(CC)(CC)n1ncc(C(=O)NC)c1C#N` came in with a melting point of 85 to 87 °C. Under `OC1CCCC1Oc1ccc(Oc2ccccc2)cc1` (stereo not drawn) stands 62 to 65 °C. `NS(=O)(=O)c1ccc(-c2cscc2-c2ccccc2)cc1F` gave a melting point of 171 °C. In turn, `O=C(Nc1ccc(-n2nc(C(F)(F)F)cc2OC(F)F)cc1)c1ccccc1Cl` registered a melting point of 122 to 123 °C. Consider `CCCCCc1cccc2c1NC(=O)C2=O`, for which the melting point fell in the range of 119 to 121 °C.

`O=C(O)CCCc1ccc(CCN(CC=Cc2ccc(Cl)cc2)S(=O)(=O)c2ccc(Cl)cc2)cc1`: the melting point is 112 to 113 °C.

With `COC(=O)C1=CCCn2c(=O)c3ccccc3c(=O)n21`, the melting point was in the range of 156 to 157 °C.

`Cn1ncnc1COc1nn2c(-c3ccccc3F)nncc2c1Br`: the melting point was in the range of 215 to 219 °C. In the case of `OCc1c(-c2ccc(O)cc2)nnn1-c1ccc(C(F)(F)F)cc1Cl`, the melting point fell in the range of 181 to 182 °C. For the compound `N#Cc1c(F)cc(OCCOc2ccc3ccccc3c2)cc1F`, the melting point fell in the range of 148 to 149 °C. The compound `CC(C)Oc1cc(CCCOc2cc(CCC(=O)O)n(Cc3ccccc3)n2)n(Cc2ccc(Cl)cc2Cl)n1` came in with a melting point of 123 to 126 °C.

Regarding `COC1OCC[C@@H]1N(C(=O)CNC(=O)COc1ccc2c(c1)Nc1ccccc1S2)[C@@H](Cc1ccccc1)C(N)=O` (stereo partly drawn), the melting point lay in the range of 203 to 204 °C. Under `CS(=O)(=O)c1cc(C(=O)N=C(N)N)cc(-n2cccc2)c1` stands 235 to 236 °C. The compound `CC(O)CCCCCCCC(O)c1ccc(OCc2ccccc2)c(OCc2ccccc2)c1` (stereo not drawn) gave a melting point of 66 °C.

Take `c1csc(-c2n[nH]c3c2sc2ccccc23)c1`: the melting point lay in the range of 236 to 238 °C.

On to `CCCC(=O)SC1CCN(C(C(=O)C2CC2)c2ccccc2F)CC1` (stereo not drawn), for which the melting point lay in the range of 97 to 98 °C. Turning to `Cc1cc(Br)cnc1CCCCNC1=NS(=O)(=O)c2ccccc21`, the melting point was in the range of 232 to 244 °C.
